Experimental data as given in ChEMBL document CHEMBL1136294, “Aryloxazolidinediones: identification of potent orally active PPAR dual alpha/gamma agonists” (Bioorg Med Chem Lett, 2003).

How the values were obtained:
[1] = target: T1, Peroxisome proliferator-activated receptor delta (Homo sapiens, UniProt Q03181)
T1 sequence (Q03181 whole entry): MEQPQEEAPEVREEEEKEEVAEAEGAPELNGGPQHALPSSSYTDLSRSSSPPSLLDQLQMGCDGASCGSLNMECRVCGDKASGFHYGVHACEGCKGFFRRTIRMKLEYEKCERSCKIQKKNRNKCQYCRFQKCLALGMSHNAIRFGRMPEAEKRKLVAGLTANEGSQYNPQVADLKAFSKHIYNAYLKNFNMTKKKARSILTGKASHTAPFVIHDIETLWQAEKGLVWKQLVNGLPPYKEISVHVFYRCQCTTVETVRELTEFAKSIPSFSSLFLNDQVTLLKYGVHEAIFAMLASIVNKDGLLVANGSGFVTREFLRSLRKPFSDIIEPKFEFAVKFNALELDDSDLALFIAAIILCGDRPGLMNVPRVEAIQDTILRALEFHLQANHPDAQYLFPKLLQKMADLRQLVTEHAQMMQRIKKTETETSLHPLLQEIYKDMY
Description: In vitro binding affinity was tested towards human Peroxisome proliferator activated receptor delta

[2] = target: T1, Peroxisome proliferator-activated receptor delta; type: functional
Description: In vitro activity in human Peroxisome proliferator activated receptor delta-transactivation assay

in vivo [3] = conditions: Sprague-Dawley, rat, po
Description: Oral bioavailability in rat (Sprague-Dawley)

Rattus norvegicus [4] = species on record: Rattus norvegicus; conditions: in vivo
Description: Area under curve in SD rats

[5] = target: T2, Peroxisome proliferator-activated receptor alpha (Homo sapiens, UniProt Q07869)
T2 sequence (Q07869 whole entry): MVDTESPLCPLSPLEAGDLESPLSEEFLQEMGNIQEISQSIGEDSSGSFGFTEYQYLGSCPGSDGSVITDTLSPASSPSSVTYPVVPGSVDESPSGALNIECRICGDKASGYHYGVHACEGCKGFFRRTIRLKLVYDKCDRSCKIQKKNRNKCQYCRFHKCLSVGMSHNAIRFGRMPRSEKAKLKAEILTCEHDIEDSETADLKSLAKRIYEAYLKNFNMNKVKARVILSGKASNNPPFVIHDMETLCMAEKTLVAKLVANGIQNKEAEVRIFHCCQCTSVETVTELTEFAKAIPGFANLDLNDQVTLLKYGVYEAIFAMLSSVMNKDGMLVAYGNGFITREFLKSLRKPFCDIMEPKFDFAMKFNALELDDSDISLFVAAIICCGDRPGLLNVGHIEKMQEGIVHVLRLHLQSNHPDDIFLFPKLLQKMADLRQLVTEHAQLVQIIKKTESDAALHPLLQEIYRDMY
Description: In vitro binding affinity was tested towards human Peroxisome proliferator activated receptor alpha

in vivo [6] = conditions: Sprague-Dawley, rat
Description: Half life period in SD rats

Rattus norvegicus [7] = species on record: Rattus norvegicus; conditions: in vivo, po
Description: Area under curve for a 2-mpk po dose in SD rats

[8] = target: T2, Peroxisome proliferator-activated receptor alpha; type: functional
Description: In vitro activity in human Peroxisome proliferator activated receptor alpha-transactivation assay

in vivo [9] = conditions: Sprague-Dawley, rat, po, 2 mg/kg
Description: Clearance in Sprague-Dawley rats after 2mg/kg oral dose

SMILES: CCCc1cc(C2CCOCC2)ccc1OCCCOc1cccc(C2OC(=O)NC2=O)c1 (stereo unspecified)
- IC50 [1]: > 50 µM

SMILES: CCCc1cc(C(=O)c2ccccc2)ccc1OCCCOc1cccc(C2SC(=O)NC2=O)c1 (stereo unspecified)
- EC50 [2]: > 3 µM
- IC50 [1]: 0.17 µM

SMILES: CCCc1cc(-c2noc3ccccc23)ccc1OCCCOc1cccc(C2SC(=O)NC2=O)c1 (stereo unspecified)
- IC50 [1]: 0.14 µM

SMILES: CCCc1cc(-c2ccccc2)ccc1OCCCOc1cccc(C2OC(=O)NC2=O)c1 (stereo unspecified)
- EC50 [2]: > 3 µM
- IC50 [1]: 1.51 µM

SMILES: CCCc1cc(C2CCCCC2)ccc1OCCCOc1cccc(C2OC(=O)NC2=O)c1 (stereo unspecified)
- EC50 [2]: > 3 µM
- IC50 [1]: > 50 µM

SMILES: CCCc1cc(OC2CCCCCC2)ccc1OCCCOc1cccc(C2SC(=O)NC2=O)c1 (stereo unspecified)
- IC50 [1]: > 50 µM

SMILES: CCCc1cc(C2CCC(=O)CC2)ccc1OCCCOc1cccc(C2OC(=O)NC2=O)c1 (stereo unspecified)
- IC50 [1]: > 50 µM

SMILES: CCCc1cc(OC2CCCCC2)ccc1OCCCOc1cccc(C2SC(=O)NC2=O)c1 (stereo unspecified)
- EC50 [2]: > 3 µM
- IC50 [1]: > 50 µM
- bioavailability (in vivo [3]): 10%
- AUC (Rattus norvegicus [4]): 0.3 µM

SMILES: CCCc1cc(OC2CCCC2)ccc1OCCCOc1cccc(C2SC(=O)NC2=O)c1 (stereo unspecified)
- IC50 [1]: 0.92 µM

SMILES: CCCc1cc(C2CCCCCC2)ccc1OCCCOc1cccc(C2OC(=O)NC2=O)c1 (stereo unspecified)
- EC50 [2]: > 3 µM
- IC50 [1]: > 50 µM

SMILES: CCCc1cc(C2CCC(O)CC2)ccc1OCCCOc1cccc(C2OC(=O)NC2=O)c1 (stereo unspecified)
- IC50 [1]: > 50 µM

SMILES: CCCc1cc(C(=O)c2ccc(Cl)cc2)ccc1OCCCOc1cccc(C2SC(=O)NC2=O)c1 (stereo unspecified)
- EC50 [2]: > 3 µM
- IC50 [1]: > 50 µM

SMILES: CCCc1cc(C=C2CCCCC2)ccc1OCCCOc1cccc(C2SC(=O)NC2=O)c1 (stereo unspecified)
- EC50 [2]: > 3 µM
- IC50 [1]: > 50 µM

SMILES: CCCc1cc(C2CCC(F)(F)CC2)ccc1OCCCOc1cccc(C2OC(=O)NC2=O)c1 (stereo unspecified)
- EC50 [2]: > 3 µM
- IC50 [1]: > 50 µM

SMILES: CCCc1ccccc1OCCCOc1cccc(C2OC(=O)NC2=O)c1 (stereo unspecified)
- IC50 [5]: 0.08 µM
- EC50 [2]: > 3 µM
- half-life (in vivo [6]): 3.6 h
- AUC (Rattus norvegicus [7]): 1.1 µM
- IC50 [1]: > 5 µM
- bioavailability (in vivo [3]): 27%
- EC50 [8]: 0.053 µM

SMILES: CCCc1cc(C(=O)C2CCCCC2)ccc1OCCCOc1cccc(C2SC(=O)NC2=O)c1 (stereo unspecified)
- EC50 [2]: > 3 µM
- CL/F (in vivo [9]): 1.77 L/h/kg
- IC50 [1]: > 50 µM
- bioavailability (in vivo [3]): 7.8%
- AUC (Rattus norvegicus [4]): 0.07 µM

SMILES: CCCc1cc(C2CCC(C)(C)CC2)ccc1OCCCOc1cccc(C2OC(=O)NC2=O)c1 (stereo unspecified)
- EC50 [2]: > 3 µM
- IC50 [1]: > 50 µM

SMILES: CCCc1cc(C2CCCC2)ccc1OCCCOc1cccc(C2OC(=O)NC2=O)c1 (stereo unspecified)
- IC50 [1]: 3.85 µM

SMILES: CCCc1cc(CC2CCCCC2)ccc1OCCCOc1cccc(C2SC(=O)NC2=O)c1 (stereo unspecified)
- EC50 [2]: > 3 µM
- IC50 [1]: > 50 µM
